Measurements as given in EP1582583A2 (priority 2000, dated 2001).

Legend:
E. indica glypS EPSPS = target: T1, E. indica glypS EPSPS (Eleusine indica, UniProt Q95AK0); assay: enzyme kinetics, Km(PEP) and Ki (glyphosate); type: biochemical; settings: apparent Km, saturating S3P
T1 sequence (Q95AK0 1-445): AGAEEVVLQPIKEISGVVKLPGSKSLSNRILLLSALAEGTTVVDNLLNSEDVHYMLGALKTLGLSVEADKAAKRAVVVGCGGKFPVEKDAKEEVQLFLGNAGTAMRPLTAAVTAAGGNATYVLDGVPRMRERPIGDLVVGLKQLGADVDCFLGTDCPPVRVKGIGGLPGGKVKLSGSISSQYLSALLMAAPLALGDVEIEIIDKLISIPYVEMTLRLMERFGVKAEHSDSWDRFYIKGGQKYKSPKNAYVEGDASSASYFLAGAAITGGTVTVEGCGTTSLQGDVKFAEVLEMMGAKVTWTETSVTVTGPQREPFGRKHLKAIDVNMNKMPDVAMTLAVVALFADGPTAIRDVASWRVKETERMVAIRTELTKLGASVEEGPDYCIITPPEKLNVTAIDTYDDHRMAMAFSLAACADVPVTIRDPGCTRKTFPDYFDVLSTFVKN
Method: Calculations, graphical representation, and statistical analysis of enzyme kinetic data are performed using GraFit version 3.0 software (Erithacus Software Ltd., Staines, U.K.).

[1] = target: native EPSPS from E. coli (Escherichia coli, UniProt P0A6D3); settings: read-out: apparent Ki for glyphosate; cited from earlier work
[2] = target: EPSPS activity in extracts from the glyphosate tolerant E. indica biotype (Eleusine indica, UniProt Q95AK1); settings: read-out: I50 (glyphosate); tolerant biotype plant extract; 0.5 mM PEP, 1 mM shikimate-3-phosphate, 25°C; Figure 4
Method: Preparation of extracts and radiometric EPSP synthase assays are performed using methods adapted from published procedures (Padgette et al., J. Biol. Chem. 266:22364-22369 (1991). Crown regions are dissected from whole plants, pulverized under liquid nitrogen with a mortar and pestle, then stored at -80°C prior to extraction. Homogenates are prepared from 0.5 g tissue per sample in 25 ml extraction buffer (100 mM TrisCl, 10 % glycerol, 1 mM EDTA, 1 mM benzamidine, 1 mM dithiothreitol, 1 mM 4-(2-aminoethyl)-benzenesulfonyl floride HCl, 0.1 mM leupeptin, pH 7.4) at 4°C using a model PT3000 Polytron homogenizer (Brinkman Instuments Inc., Westbury, NY). Debris is removed by 0.2 µm filtration, then the resulting supernatant is concentrated and desalted using an Ultrafree-15 centrifugal filtration unit (cat.# UFV2-BGC-10, Millipore Corp., Bedford, MA). Final sample volumes are approximately 0.5 ml. Protein concentrations are determined spectrophotometrically using the Bio-Rad protein assay reagent (cat.#500-0006, Bio-Rad Laboratories, Hercules, CA). EPSPS specific activities are determined by assaying 10 µl extract at 25°C for 5- 15 min. […] Reactions are quenched with the addition of 50 µl 9:1 ethanol: 0.1 M acetic acid. […]

[3] = test system: E. coli SR481 cells transformed with pMON45364 (Ei.EPSPS:glypR); assay: growth rates of transgenic E. coli on glyphosate containing media; type: cell-based; settings: growth (O.D.595) in minimal M9 media with 0.0, 0.5, 1.5 or 5.0 mM glyphosate; cells expressing EPSPS of tolerant biotype (pMON45364) versus sensitive biotype (pMON45365); Figure 3
Excerpt: The EPSP synthase mature protein-coding regions isolated from the glyphosate tolerant and glyphosate sensitive E. indica biotypes, can be directly compared for their ability to confer tolerance to glyphosate in transgenic hosts. […] This was inserted by ligation to facilitate expression and cloning at the ATG start codon of an open reading frame.
These sequences are employed in RT-PCR reactions to generate expression cassettes suitable for cloning into pMON45337 cut with the restriction enzymes Nde1 and EcoR1. RT-PCR reactions are performed with total RNAs extracted from frozen crown samples using the RNeasy Plant Mini Kit (cat.# 74904, Qiagen Inc., Valencia, CA) per manufacturer's instructions. Oligo·dT-primed first-strand cDNAs are prepared from 5 µg samples of total RNA using the Superscript Pre-Amplification System (cat.# 18089-011, Life Technologies, Rockville, MD) per manufacturer's instructions. Two µl of first-strand cDNA are then used to generate E. indica EPSP synthase expression cassettes via polymerase chain reaction. The oligonucleotides are added in 50 µl RT-PCR reactions at a final concentration of 0.4 µM. […]

Chain of EPSPS activity in extracts from the glyphosate tolerant E. indica biotype (Q95AK1 entry or part of it): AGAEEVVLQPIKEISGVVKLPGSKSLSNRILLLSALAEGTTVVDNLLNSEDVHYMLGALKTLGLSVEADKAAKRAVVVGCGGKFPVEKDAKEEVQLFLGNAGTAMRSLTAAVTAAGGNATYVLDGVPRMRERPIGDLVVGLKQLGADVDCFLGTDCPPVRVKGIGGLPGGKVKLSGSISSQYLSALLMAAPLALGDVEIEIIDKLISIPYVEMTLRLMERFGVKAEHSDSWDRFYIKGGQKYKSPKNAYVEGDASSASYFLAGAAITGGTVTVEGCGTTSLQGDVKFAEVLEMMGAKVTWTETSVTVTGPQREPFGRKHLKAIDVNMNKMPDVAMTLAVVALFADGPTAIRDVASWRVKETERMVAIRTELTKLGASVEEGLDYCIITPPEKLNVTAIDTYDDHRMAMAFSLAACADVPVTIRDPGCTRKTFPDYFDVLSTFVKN
Chain of native EPSPS from E. coli (P0A6D3 whole entry): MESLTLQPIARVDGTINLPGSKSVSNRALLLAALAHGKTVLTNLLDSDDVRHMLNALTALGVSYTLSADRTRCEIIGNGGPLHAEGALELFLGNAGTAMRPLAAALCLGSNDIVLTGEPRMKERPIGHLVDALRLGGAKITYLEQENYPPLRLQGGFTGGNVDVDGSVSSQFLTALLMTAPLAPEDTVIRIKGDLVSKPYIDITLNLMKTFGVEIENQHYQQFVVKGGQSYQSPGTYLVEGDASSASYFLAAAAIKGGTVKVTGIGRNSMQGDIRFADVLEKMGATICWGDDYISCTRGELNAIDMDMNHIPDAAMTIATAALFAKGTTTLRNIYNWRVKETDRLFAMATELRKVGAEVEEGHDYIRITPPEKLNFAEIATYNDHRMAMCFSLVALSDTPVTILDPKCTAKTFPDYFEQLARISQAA

SMILES | KmPEP (E. indica glypS EPSPS) | Ki [1] | IC50 [2] | increase in tolerance to glyphosate [3]
C=C(OP(=O)(O)O)C(=O)O [PEP, phosphoenolpyruvate] | 5 M | – | – | –
O=C(O)CNCP(=O)(O)O [glyphosate, N-phosphonomethylglycine] | – | 500 nM | ~16 µM | approximately three-fold
